Results as given in the NIST ThermoML archive (doi:10.1021/je300252d).

Test: mn = molality of the nth substance listed, in mol/kg
Settings: 100 kPa, Liquid, Direct current cell with electrodes

F[B-](F)(F)F.[Na+] [sodium tetrafluoroborate] + CN(C)C=O
Settings	molar conductivity [S·m2/mol]
283.15 K, m1 = 0.0001924	0.006693
283.15 K, m1 = 0.0003952	0.0066184
283.15 K, m1 = 0.0006451	0.0065533
283.15 K, m1 = 0.0008265	0.0065141
283.15 K, m1 = 0.001295	0.006434
283.15 K, m1 = 0.002093	0.0063285
283.15 K, m1 = 0.00309	0.0062291
283.15 K, m1 = 0.004094	0.0061456
283.15 K, m1 = 0.005982	0.0060221
283.15 K, m1 = 0.007983	0.0059166
283.15 K, m1 = 0.009964	0.005832
283.15 K, m1 = 0.01199	0.0057567
288.15 K, m1 = 0.0001674	0.007209
288.15 K, m1 = 0.000442	0.007102
288.15 K, m1 = 0.000627	0.0070513
288.15 K, m1 = 0.0007814	0.0070146
288.15 K, m1 = 0.001324	0.0069135
288.15 K, m1 = 0.002128	0.0067991
288.15 K, m1 = 0.003087	0.0066947
288.15 K, m1 = 0.00408	0.0066044
288.15 K, m1 = 0.006001	0.0064671
288.15 K, m1 = 0.007983	0.0063522
288.15 K, m1 = 0.009981	0.0062566
288.15 K, m1 = 0.01195	0.0061747
293.15 K, m1 = 0.0002336	0.007686
293.15 K, m1 = 0.0004583	0.0076005
293.15 K, m1 = 0.0006194	0.0075538
293.15 K, m1 = 0.0008218	0.0075029
293.15 K, m1 = 0.001262	0.0074142
293.15 K, m1 = 0.001996	0.0072971
293.15 K, m1 = 0.003085	0.0071656
293.15 K, m1 = 0.004073	0.0070679
293.15 K, m1 = 0.005971	0.0069203
293.15 K, m1 = 0.007974	0.0067931
293.15 K, m1 = 0.009986	0.0066867
293.15 K, m1 = 0.01198	0.0065964
298.15 K, m1 = 0.0001864	0.008228
298.15 K, m1 = 0.0003604	0.008147
298.15 K, m1 = 0.0005971	0.0080676
298.15 K, m1 = 0.000833	0.0080036
298.15 K, m1 = 0.001297	0.0079038
298.15 K, m1 = 0.002158	0.0077599
298.15 K, m1 = 0.00307	0.0076432
298.15 K, m1 = 0.004131	0.0075305
298.15 K, m1 = 0.005971	0.0073766
298.15 K, m1 = 0.007994	0.0072373
298.15 K, m1 = 0.009949	0.0071242
298.15 K, m1 = 0.01197	0.0070255
303.15 K, m1 = 0.0001663	0.008767
303.15 K, m1 = 0.0003918	0.008654
303.15 K, m1 = 0.0005861	0.0085855
303.15 K, m1 = 0.0007746	0.008529
303.15 K, m1 = 0.001279	0.0084093
303.15 K, m1 = 0.002088	0.0082612
303.15 K, m1 = 0.003044	0.0081277
303.15 K, m1 = 0.004105	0.0080061
303.15 K, m1 = 0.005964	0.0078384
303.15 K, m1 = 0.007948	0.0076906
303.15 K, m1 = 0.01001	0.0075615
303.15 K, m1 = 0.01198	0.0074596
308.15 K, m1 = 0.0001761	0.009295
308.15 K, m1 = 0.0003871	0.009183
308.15 K, m1 = 0.0005655	0.0091142
308.15 K, m1 = 0.0008095	0.0090359
308.15 K, m1 = 0.001266	0.0089201
308.15 K, m1 = 0.002043	0.0087655
308.15 K, m1 = 0.003019	0.0086178
308.15 K, m1 = 0.004064	0.0084888
308.15 K, m1 = 0.005984	0.0083031
308.15 K, m1 = 0.007986	0.0081431
308.15 K, m1 = 0.01001	0.0080069
308.15 K, m1 = 0.01196	0.0079009
313.15 K, m1 = 0.0001113	0.009888
313.15 K, m1 = 0.0003812	0.00972
313.15 K, m1 = 0.0006135	0.0096252
313.15 K, m1 = 0.000783	0.0095672
313.15 K, m1 = 0.001297	0.0094265
313.15 K, m1 = 0.002162	0.0092463
313.15 K, m1 = 0.003051	0.0091053
313.15 K, m1 = 0.004099	0.0089684
313.15 K, m1 = 0.005996	0.0087733
313.15 K, m1 = 0.008013	0.0086011
313.15 K, m1 = 0.01004	0.0084556
313.15 K, m1 = 0.01199	0.0083454
318.15 K, m1 = 0.0001596	0.0104
318.15 K, m1 = 0.0004215	0.01024
318.15 K, m1 = 0.0005697	0.010177
318.15 K, m1 = 0.0008753	0.010067
318.15 K, m1 = 0.001339	0.009935
318.15 K, m1 = 0.002012	0.0097823
318.15 K, m1 = 0.003095	0.009596
318.15 K, m1 = 0.004095	0.0094578
318.15 K, m1 = 0.005994	0.0092497
318.15 K, m1 = 0.008014	0.0090658
318.15 K, m1 = 0.009953	0.0089174
318.15 K, m1 = 0.01195	0.0087989
